Test results published in patent US6355799B1, “Substituted benzene compounds, process for their preparation, and herbicidal and defoliant compositions containing them” (ISK Americas Incorporated, priority 1997, dated 2002).

Columns and labels:
Format in all cases: in vivo
[1] = tested on: redroot pigweed (Amaranthus retroflexus, AMARE); assay: Pre-emerge test, greenhouse herbicide activity screening; settings: for Pre-emerge herbicidal activity, phytotoxicity rating AMARE: rating scale 0-100, 14 days after application; for phytotoxicity rating AMARE: pre-emerge, 14 days after application, rating scale 0-100
Procedure, shortened: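 Plants grown in 10 cm pots of sandy loam mix received acetone-dissolved compounds through a moving flat-fan nozzle. Doses ranged from 15 to 1000 g ai/ha. Pre-emerge pots were seeded one day earlier, post-emerge pots 8–21 days earlier. Fourteen days on, each pot was graded 0–100 for damage.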

[2] = tested on: barnyardgrass (Echinochloa crus-galli, ECHCG); assay: as above; settings: for Pre-emerge herbicidal activity, phytotoxicity rating ECHCG: rating scale 0-100, 14 days after application; for phytotoxicity rating ECHCG: pre-emerge, 14 days after application, rating scale 0-100
Procedure, shortened: (§1)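 Compounds in acetone were track-sprayed at 15-1000 g ai/ha (187 l/ha) on sandy loam pots: pre-emerge one day after seeding, post-emerge at 2-3 leaf stage with 0.25% v/v non-ionic surfactant. Phytotoxicity was rated 14 days later on a 0 (no damage) to 100 (complete death) scale.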

[3] = tested on: green foxtail (Setaria viridis, SETVI); assay: as above; settings: for Pre-emerge herbicidal activity, phytotoxicity rating SETVI: rating scale 0-100, 14 days after application; for phytotoxicity rating SETVI: pre-emerge, 14 days after application, rating scale 0-100
Procedure, shortened: as §1

[4] = tested on: ivyleaf morningglory (Ipomoea hederacea, IPOHE); assay: as above; settings: for Pre-emerge herbicidal activity, phytotoxicity rating IPOHE: rating scale 0-100, 14 days after application; for phytotoxicity rating IPOHE: pre-emerge, 14 days after application, rating scale 0-100
Procedure, shortened: as §1

[5] = tested on: lambsquarters (Chenopodium album, CHEAL); assay: as above; settings: for Pre-emerge herbicidal activity, phytotoxicity rating CHEAL: rating scale 0-100, 14 days after application; for phytotoxicity rating CHEAL: pre-emerge, 14 days after application, rating scale 0-100
Procedure, shortened: as §1

[6] = tested on: large crabgrass (Digitaria sanguinalis, DIGSA); assay: as above; settings: for Pre-emerge herbicidal activity, phytotoxicity rating DIGSA: rating scale 0-100, 14 days after application; for phytotoxicity rating DIGSA: pre-emerge, 14 days after application, rating scale 0-100
Procedure, shortened: as §1

[7] = tested on: sicklepod (Cassia obtusifolia, CASOB); assay: as above; settings: for Pre-emerge herbicidal activity, phytotoxicity rating CASOB: rating scale 0-100, 14 days after application; for phytotoxicity rating CASOB: pre-emerge, 14 days after application, rating scale 0-100
Procedure, shortened: as §1

[8] = tested on: velvetleaf (Abutilon theophrasti, ABUTH); assay: as above; settings: for Pre-emerge herbicidal activity, phytotoxicity rating ABUTH: rating scale 0-100, 14 days after application; for phytotoxicity rating ABUTH: pre-emerge, 14 days after application, rating scale 0-100
Procedure, shortened: as §1

[9] = tested on: field corn (Zea mays L., var. Dekalb 535, CORN); assay: Pre-emerge test, crop safety; settings: for Pre-emerge phytotoxicity rating, crop damage CORN: rating scale 0-100, 14 days after application; for phytotoxicity rating CORN: pre-emerge, 14 days after application, rating scale 0-100
Procedure, shortened: (§2)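 Sandy loam pots; pre-emerge: sown 1 d pre-spray, surface-watered after, then bottom-watered. Post-emerge: sown 8–21 d before, 2–3 leaf stage, + 0.25% v/v NIS, bottom-watered. Acetone, 187 l/ha track spray, 15–1000 g ai/ha. 0–100 injury score, day 14.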

[10] = tested on: upland rice (Oryza sp., var. Tebonnet, RICE); assay: Pre-emerge test, crop safety; settings: for Pre-emerge phytotoxicity rating, crop damage RICE: rating scale 0-100, 14 days after application; for phytotoxicity rating RICE: pre-emerge, 14 days after application, rating scale 0-100
Procedure, shortened: as §2

[11] = tested on: barnyardgrass (Echinochloa crus-galli, ECHCG); assay: Post-emerge test, greenhouse herbicide activity screening; settings: post-emerge; for Post-emerge Herbicidal Activity ECHCG: phytotoxicity rating 0-100 at 14 days after application; for Post-emerge Herbicidal Activity ECHCG (phytotoxicity rating): 14 days after application, rating scale 0-100
Procedure, shortened: as §1

[12] = tested on: green foxtail (Setaria viridis, SETVI); assay: as above; settings: post-emerge; for Post-emerge Herbicidal Activity SETVI: phytotoxicity rating 0-100 at 14 days after application; for Post-emerge Herbicidal Activity SETVI (phytotoxicity rating): 14 days after application, rating scale 0-100
Procedure, shortened: as §1

[13] = tested on: ivyleaf morningglory (Ipomoea hederacea, IPOHE); assay: as above; settings: post-emerge; for Post-emerge Herbicidal Activity IPOHE: phytotoxicity rating 0-100 at 14 days after application; for Post-emerge Herbicidal Activity IPOHE (phytotoxicity rating): 14 days after application, rating scale 0-100
Procedure, shortened: as §1

[14] = tested on: lambsquarters (Chenopodium album, CHEAL); assay: as above; settings: post-emerge; for Post-emerge Herbicidal Activity CHEAL: phytotoxicity rating 0-100 at 14 days after application; for Post-emerge Herbicidal Activity CHEAL (phytotoxicity rating): 14 days after application, rating scale 0-100
Procedure, shortened: as §1

[15] = tested on: large crabgrass (Digitaria sanguinalis, DIGSA); assay: as above; settings: post-emerge; for Post-emerge Herbicidal Activity DIGSA: phytotoxicity rating 0-100 at 14 days after application; for Post-emerge Herbicidal Activity DIGSA (phytotoxicity rating): 14 days after application, rating scale 0-100
Procedure, shortened: as §1

[16] = tested on: redroot pigweed (Amaranthus retroflexus, AMARE); assay: as above; settings: post-emerge; for Post-emerge Herbicidal Activity AMARE: phytotoxicity rating 0-100 at 14 days after application; for Post-emerge Herbicidal Activity AMARE (phytotoxicity rating): 14 days after application
Procedure, shortened: as §1

[17] = tested on: sicklepod (Cassia obtusifolia, CASOB); assay: as above; settings: post-emerge; for Post-emerge Herbicidal Activity CASOB: phytotoxicity rating 0-100 at 14 days after application; for Post-emerge Herbicidal Activity CASOB (phytotoxicity rating): 14 days after application, rating scale 0-100
Procedure, shortened: as §1

[18] = tested on: velvetleaf (Abutilon theophrasti, ABUTH); assay: as above; settings: post-emerge; for Post-emerge Herbicidal Activity ABUTH: phytotoxicity rating 0-100 at 14 days after application; for Post-emerge Herbicidal Activity ABUTH (phytotoxicity rating): 14 days after application, rating scale 0-100
Procedure, shortened: as §1

[19] = tested on: field corn (Zea mays L., var. Dekalb 535, CORN); assay: Post-emerge test, crop safety; settings: post-emerge; for Post-emerge Herbicidal Activity CORN: crop damage rating 0-100 at 14 days after application; for Post-emerge Herbicidal Activity CORN (crop damage rating): 14 days after application, rating scale 0-100
Procedure, shortened: as §1

[20] = tested on: upland rice (Oryza sp., var. Tebonnet, RICE); assay: Post-emerge test, crop safety; settings: post-emerge; for Post-emerge Herbicidal Activity RICE: crop damage rating 0-100 at 14 days after application; for Post-emerge Herbicidal Activity RICE (crop damage rating): 14 days after application, rating scale 0-100
Procedure, shortened: as §1

COc1c(Cl)cc(F)c(N2C(=O)C3CCCCN3C2=S)c1NC(=O)c1ccc2ccccc2c1 (centres unmarked) [12-5]
Pre-emerge herbicidal activity, phytotoxicity rating AMARE ([1]; 63 g ai/ha): 30 | Pre-emerge herbicidal activity, phytotoxicity rating AMARE ([1]; 250 g ai/ha): 100 | Pre-emerge herbicidal activity, phytotoxicity rating ECHCG ([2]; 63 g ai/ha): 0 | Pre-emerge herbicidal activity, phytotoxicity rating ECHCG ([2]; 250 g ai/ha): 40 | Pre-emerge herbicidal activity, phytotoxicity rating SETVI ([3]; 63 g ai/ha): 0 | Pre-emerge herbicidal activity, phytotoxicity rating SETVI ([3]; 250 g ai/ha): 0 | Pre-emerge herbicidal activity, phytotoxicity rating IPOHE ([4]; 63 g ai/ha): 0 | Pre-emerge herbicidal activity, phytotoxicity rating IPOHE ([4]; 250 g ai/ha): 20 | Pre-emerge herbicidal activity, phytotoxicity rating CHEAL ([5]; 63 g ai/ha): 90 | Pre-emerge herbicidal activity, phytotoxicity rating CHEAL ([5]; 250 g ai/ha): 100 | Pre-emerge herbicidal activity, phytotoxicity rating DIGSA ([6]; 63 g ai/ha): 0 | Pre-emerge herbicidal activity, phytotoxicity rating DIGSA ([6]; 250 g ai/ha): 10 | Pre-emerge herbicidal activity, phytotoxicity rating CASOB ([7]; 63 g ai/ha): 0 | Pre-emerge herbicidal activity, phytotoxicity rating CASOB ([7]; 250 g ai/ha): 80 | Pre-emerge herbicidal activity, phytotoxicity rating ABUTH ([8]; 63 g ai/ha): 70 | Pre-emerge herbicidal activity, phytotoxicity rating ABUTH ([8]; 250 g ai/ha): 90 | Pre-emerge phytotoxicity rating, crop damage CORN ([9]; 63 g ai/ha): 0 | Pre-emerge phytotoxicity rating, crop damage CORN ([9]; 250 g ai/ha): 0 | Pre-emerge phytotoxicity rating, crop damage RICE ([10]; 63 g ai/ha): 0 | Pre-emerge phytotoxicity rating, crop damage RICE ([10]; 250 g ai/ha): 10 | Post-emerge Herbicidal Activity ECHCG ([11]; 63 g ai/ha): 10 | Post-emerge Herbicidal Activity ECHCG ([11]; 250 g ai/ha): 10 | Post-emerge Herbicidal Activity SETVI ([12]; 63 g ai/ha): 20 | Post-emerge Herbicidal Activity SETVI ([12]; 250 g ai/ha): 10 | Post-emerge Herbicidal Activity IPOHE ([13]; 63 g ai/ha): 100 | Post-emerge Herbicidal Activity IPOHE ([13]; 250 g ai/ha): 99 | Post-emerge Herbicidal Activity CHEAL ([14]; 63 g ai/ha): 100 | Post-emerge Herbicidal Activity CHEAL ([14]; 250 g ai/ha): 99 | Post-emerge Herbicidal Activity DIGSA ([15]; 63 g ai/ha): 0 | Post-emerge Herbicidal Activity DIGSA ([15]; 250 g ai/ha): 10 | Post-emerge Herbicidal Activity AMARE ([16]; 63 g ai/ha): 70 | Post-emerge Herbicidal Activity AMARE ([16]; 250 g ai/ha): 85 | Post-emerge Herbicidal Activity CASOB ([17]; 63 g ai/ha): 40 | Post-emerge Herbicidal Activity CASOB ([17]; 250 g ai/ha): 60 | Post-emerge Herbicidal Activity ABUTH ([18]; 63 g ai/ha): 100 | Post-emerge Herbicidal Activity ABUTH ([18]; 250 g ai/ha): 100 | Post-emerge Herbicidal Activity CORN ([19]; 63 g ai/ha): 25 | Post-emerge Herbicidal Activity CORN ([19]; 250 g ai/ha): 20 | Post-emerge Herbicidal Activity RICE ([20]; 63 g ai/ha): 20 | Post-emerge Herbicidal Activity RICE ([20]; 250 g ai/ha): 15

COc1c(Cl)cc(F)c(-n2c(=O)cc(C(F)(F)F)n(C)c2=O)c1NNC(=O)c1ccc(F)cc1F [15-4]
phytotoxicity rating AMARE ([1]; 63 g ai/ha): 100 | phytotoxicity rating AMARE ([1]; 250 g ai/ha): 100 | phytotoxicity rating ECHCG ([2]; 63 g ai/ha): 80 | phytotoxicity rating ECHCG ([2]; 250 g ai/ha): 100 | phytotoxicity rating SETVI ([3]; 63 g ai/ha): 100 | phytotoxicity rating SETVI ([3]; 250 g ai/ha): 100 | phytotoxicity rating IPOHE ([4]; 63 g ai/ha): 100 | phytotoxicity rating IPOHE ([4]; 250 g ai/ha): 100 | phytotoxicity rating CHEAL ([5]; 63 g ai/ha): 100 | phytotoxicity rating CHEAL ([5]; 250 g ai/ha): 100 | phytotoxicity rating DIGSA ([6]; 63 g ai/ha): 100 | phytotoxicity rating DIGSA ([6]; 250 g ai/ha): 100 | phytotoxicity rating CASOB ([7]; 63 g ai/ha): 100 | phytotoxicity rating CASOB ([7]; 250 g ai/ha): 100 | phytotoxicity rating ABUTH ([8]; 63 g ai/ha): 100 | phytotoxicity rating ABUTH ([8]; 250 g ai/ha): 100 | phytotoxicity rating CORN ([9]; 63 g ai/ha): 90 | phytotoxicity rating CORN ([9]; 250 g ai/ha): 100 | phytotoxicity rating RICE ([10]; 63 g ai/ha): 80 | phytotoxicity rating RICE ([10]; 250 g ai/ha): 100 | Post-emerge Herbicidal Activity ECHCG (phytotoxicity rating) ([11]; 63 g ai/ha): 40 | Post-emerge Herbicidal Activity ECHCG (phytotoxicity rating) ([11]; 250 g ai/ha): 90 | Post-emerge Herbicidal Activity SETVI (phytotoxicity rating) ([12]; 63 g ai/ha): 50 | Post-emerge Herbicidal Activity SETVI (phytotoxicity rating) ([12]; 250 g ai/ha): 80 | Post-emerge Herbicidal Activity IPOHE (phytotoxicity rating) ([13]; 63 g ai/ha): 100 | Post-emerge Herbicidal Activity IPOHE (phytotoxicity rating) ([13]; 250 g ai/ha): 100 | Post-emerge Herbicidal Activity CHEAL (phytotoxicity rating) ([14]; 63 g ai/ha): 100 | Post-emerge Herbicidal Activity CHEAL (phytotoxicity rating) ([14]; 250 g ai/ha): 100 | Post-emerge Herbicidal Activity DIGSA (phytotoxicity rating) ([15]; 63 g ai/ha): 30 | Post-emerge Herbicidal Activity DIGSA (phytotoxicity rating) ([15]; 250 g ai/ha): 70 | Post-emerge Herbicidal Activity AMARE (phytotoxicity rating) ([16]; 63 g ai/ha, rating scale 0-100 (0 no damage, 100 complete death)): 70 | Post-emerge Herbicidal Activity AMARE (phytotoxicity rating) ([16]; 250 g ai/ha, rating scale 0-100): 100 | Post-emerge Herbicidal Activity CASOB (phytotoxicity rating) ([17]; 63 g ai/ha): 50 | Post-emerge Herbicidal Activity CASOB (phytotoxicity rating) ([17]; 250 g ai/ha): 80 | Post-emerge Herbicidal Activity ABUTH (phytotoxicity rating) ([18]; 63 g ai/ha): 100 | Post-emerge Herbicidal Activity ABUTH (phytotoxicity rating) ([18]; 250 g ai/ha): 100 | Post-emerge Herbicidal Activity CORN (crop damage rating) ([19]; 63 g ai/ha): 50 | Post-emerge Herbicidal Activity CORN (crop damage rating) ([19]; 250 g ai/ha): 90 | Post-emerge Herbicidal Activity RICE (crop damage rating) ([20]; 63 g ai/ha): 70 | Post-emerge Herbicidal Activity RICE (crop damage rating) ([20]; 250 g ai/ha): 95
